How the values were obtained:
Format in all cases: in vivo
Meloidogyne incognita = assay: Southern root-knot nematode test (gall rating on tomato); details: effective dose to provide a 3 gall rating (light galling)
Procedure: For southern root-knot nematod and systemic tests for southern armyworm, cotton aphid, tobacco budworm and greenbug, a stock solution or suspension was prepared by adding 15 mg of the test compound to 250 mg of dimethylformamide, 1250 mg of acetone and 3 mg of the emulsifier blend referenced above. Water was then added to provide a test compound concentration of 150 ppm. When necessary, sonication was provided to insure complete dispersion.
Southern root-knot nematode: Infected roots of tomato plants, containing egg masses of southern root-knot nematode, were removed from a stock culture and cleaned of soil by shaking and washing with tap water. The nematode eggs were separated from the root tissue and rinsed with water. Samples of the egg suspension were placed on a fine screen over a receiving bowl, in which the water level was adjusted to be in contact with the screen. From the bowl, juveniles were collected on a fine screen. […] At the termination of the test, roots of the tomato seedling were removed from the cone and evaluated for galling on a rating scale relative to the untreated control as follows: • 1- severe galling, equal t untreated control • 3- light galling • 4- very light galling • 5- no galling, ie, complete control

Spodoptera eridania [1] = assay: Southern armyworm on tomato - systemic evaluation; details: systemic via root uptake; 6.6 ppm soil concentration; foliage excised 21 days after treatment, larvae examined after about 5 days
Procedure: For southern root-knot nematod and systemic tests for southern armyworm, cotton aphid, tobacco budworm and greenbug, a stock solution or suspension was prepared by adding 15 mg of the test compound to 250 mg of dimethylformamide, 1250 mg of acetone and 3 mg of the emulsifier blend referenced above. Water was then added to provide a test compound concentration of 150 ppm. When necessary, sonication was provided to insure complete dispersion. Southern armyworm on tomato - systemic evaluation: This test was conducted in conjunction with the southern root-knot nematode evaluation (discussed below). The tomato plants, grown in the soil (at an initial compound test screening rate of 6.6 ppm soil concentration or about 150 ppm solution concentration) for nematode evaluation, were then utilized for evaluation of a compound's uptake via roots and subsequent systemic transport to the tomato foliage. At the termination of the nematode test, 21 days after treatment, the tomato foliage was excised, placed into a plastic container, and infested with second instar larvae of southern armyworm. After about 5 days, the larvae were examined for percent mortality.

Spodoptera eridania [2] = assay: Southern armyworm on sorghum - systemic evaluation (soil drench); details: systemic via root uptake, 20 ppm soil concentration dose (and subsequent dilutions), six days
Procedure: Cotton aphid and southern armyworm (on cotton) and greenbug and southern armyworm (on sorghum) - systemic evaluation: A stock solution or suspension was prepared to deliver 5 ml of a 20 ppm soil concentration dose (and subsequent dilutions) as a drench to 6 cm pots containing cotton and sorghum plants. The cotton plants were previously infested with cotton aphids about two days before treatment and greenbug one day before treatment. After holding the plants about three days, the plants were rated for aphid activity. Again at six days, the plants were rated for aphid activity and the cotton aphids and greenbugs were counted and mortality was assessed. Portions of the cotton and sorghum foliage were excised, placed in separate plastic containers, and infested with second instar larvae of southern armyworms. The potted plants were dipped in sulfotepp to kill the remaining aphids and returned to the greenhouse for regrowth. Thirteen days after treatment the remaining foliage was excised and fed to southern armyworm. Mortality was assessed six days after infestation.

Heliothis virescens [3] = assay: Tobacco budworm on sorghum - systemic evaluation (soil drench); details: systemic via root uptake, 10.0 ppm soil concentration
Procedure: (§1) For southern root-knot nematod and systemic tests for southern armyworm, cotton aphid, tobacco budworm and greenbug, a stock solution or suspension was prepared by adding 15 mg of the test compound to 250 mg of dimethylformamide, 1250 mg of acetone and 3 mg of the emulsifier blend referenced above. Water was then added to provide a test compound concentration of 150 ppm. When necessary, sonication was provided to insure complete dispersion. Cotton aphid and tobacco budworm (on cotton) and greenbug and tobacco budworm (on sorghum) - systemic evaluation: A 7.0 ml aliquot of the 150 ppm nematode test solution was applied to deliver the equivalent of 10.0 ppm soil concentration dose as a drench to 6 cm pots containing cotton and sorghum plants. The cotton plants were previously infested with cotton aphids about two days before treatment and greenbug one day before treatment. After holding the plants about three days, the plants were rated for aphid activity. Again at six days, the plants were rated for aphid activity and the cotton aphids and greenbugs were counted and mortality was assessed. Portions of the cotton and sorghum foliage were excised, placed in separate plastic containers, and infested with second instar larvae of tobacco budworm. The potted plants were dipped in sulfotepp to kill the remaining aphids and returned to the greenhouse for regrowth. Thirteen days after treatment, the remaining foliage was excised and fed to tobacco budworms. Mortality was assessed six days after infestation.

Schizaphis graminum = assay: Greenbug on sorghum - systemic evaluation (soil drench); details: systemic via root uptake, soil drench at soil concentrations of the protocols (10.0 or 20 ppm)
Procedure: as §1, with “infestation. Cotton aphid and southern armyworm (on cotton) and greenbug and southern armyworm (on sorghum) - systemic evaluation: A stock solution or suspension was prepared to deliver 5 ml of a 20 ppm soil concentration dose (and subsequent dilutions) as a drench to 6 cm pots containing cotton and sorghum plants. The cotton plants were previously infested with cotton aphids about two days before treatment and greenbug one day before treatment. After holding the plants about three days, the plants were rated for aphid activity. Again at six days, the plants were rated for aphid activity and the cotton aphids and greenbugs were counted and mortality was assessed. Portions of the cotton and sorghum foliage were excised, placed in separate plastic containers, and infested with second instar larvae of southern armyworms. The potted plants were dipped in sulfotepp to kill the remaining aphids and returned to the greenhouse for regrowth. Thirteen days after treatment the remaining foliage was excised and fed to southern armyworm. Mortality was assessed six days after infestation.” for “infestation.”

Aphis gossypii = assay: Cotton aphid on cotton - systemic evaluation (soil drench); details: systemic via root uptake, soil drench at soil concentrations of the protocols (10.0 or 20 ppm)
Procedure: as §1, with “infestation. Cotton aphid and southern armyworm (on cotton) and greenbug and southern armyworm (on sorghum) - systemic evaluation: A stock solution or suspension was prepared to deliver 5 ml of a 20 ppm soil concentration dose (and subsequent dilutions) as a drench to 6 cm pots containing cotton and sorghum plants. The cotton plants were previously infested with cotton aphids about two days before treatment and greenbug one day before treatment. After holding the plants about three days, the plants were rated for aphid activity. Again at six days, the plants were rated for aphid activity and the cotton aphids and greenbugs were counted and mortality was assessed. Portions of the cotton and sorghum foliage were excised, placed in separate plastic containers, and infested with second instar larvae of southern armyworms. The potted plants were dipped in sulfotepp to kill the remaining aphids and returned to the greenhouse for regrowth. Thirteen days after treatment the remaining foliage was excised and fed to southern armyworm. Mortality was assessed six days after infestation.” for “infestation.”

Heliothis virescens [4] = assay: Tobacco budworm - contact evaluation (topical application); details: topical or contact tests; application dose of 63 µg/g body weight
Procedure: For tobacco budworm contact tests, a stock solution was prepared by dissolving the compound in acetone and then further diluted to provide the required serial dilution concentrations.
Tobacco budworm - contact evaluation: The following topical application method provides an assessment of contact toxicity of a compound to tobacco budworm larvae The test compound solution at sequential two-fold dilution concentrations from 10 down to 0.16 µg/µl was applied by a microinjector in repli cated 1 µl portions to the dorsum of approximately 20 mg tobacco budworm larvae. This is equivalent to applied doses of 500 down to 8 µg/g body weight. An acetone treated control, without any test compounds, as also applied. A treated control with a commercial technical compound, cypermethrin or thiodicarb, also in acetone was used as a standard. The treated larvae were placed, individually, in separate plastic petri dishes containing an untreated cotton leaf and a moist dental wick. The treated larvae were maintained at about 27°C and 50% relative humidity. The percent mortality was rated 1 and 4 days after treatment.

Tetranychus urticae = assay: Twospotted spider mite test (foliar, 100 ppm); details: foliar bait tests
Procedure: For mite, aphid, southern armyworm, Mexican bean beetle, and tobacco budworm tests, a solution or suspension was prepared by adding 10 mg of the test compound to a solution of 160 mg of dimethylformamide, 838 mg of acetone, 2 mg of a 3:1 ratio of Triton X-172 : Triton X-152 (respectively, mainly anionic and nonionic low foam emulsifiers which are each anhydro us blends of alkylaryl polyether alcohols with organic sulfonates), and 98.99 g of water. The result was a concentration of 100 ppm of the test compound.
Twospotted spider mite: Leaves infested with adult and nymphal stages of the two-spotted spider mite, obtained from a stock culture were placed on the primary leaves of two bean plants growing in a 6 cm. peat pot. A sufficient number of mites (150-200) for testing were transferred to the fresh plants within a period of twenty-four hours. The potted plants (one pot per compound) were placed on a revolving turntable and sprayed, sufficient to wet the plants to runoff, with 100 ml of the 100 ppm test compound formulation by use of a DeVilbiss spray gun set at 40 psig. air pressure. As an untreated control, 100 ml of the water-acetone-DMF-emulsifier solution, containing no test compound, were also sprayed on infested plants. A treated control with a commercial technical compound, either dicofol or hexythiazox, formulated in the same manner, was tested as a standard. […]

Spodoptera eridania [5] = assay: Southern armyworm on oats - seed treatment evaluation; details: 1.0 wt. % on oat seeds
Procedure: Cotton aphid and southern armyworm (on cotton and oats) - seed treatment evaluation: Technical material was applied to the seed of oats and cotton by placing the compound and the seed in an appropriate sized jar and rolling the jar on a ball mill. Assay of the material applied to the seed was by weight. Seed was then planted. When germinated and emerged, the plants were infested at the appropriate intervals with host insects. Mortality was assessed on those insects.

Row | SMILES | control of tobacco budworm after six days on sorghum (Heliothis virescens [3]) | control of greenbug after six days on sorghum (Schizaphis graminum) | control of cotton aphid after six days on cotton (Aphis gossypii) | also measured
1 | COc1cc(C=Nc2c([S+]([O-])C(F)(F)F)c(C#N)nn2-c2c(Cl)cc(C(F)(F)F)cc2Cl)ccc1O (stereo not drawn) [compound 10, 1-(2,6-dichloro-4-trifluoromethylphenyl)-3-cyano-4-trifluoromethylsulfinyl-5-[(4-hydroxy-3-methoxyphenyl)methylideneimino]pyrazole] | – | – | – | ED3 value on SRKN larvae (Meloidogyne incognita): about 21 kg/ha; control of southern armyworm on tomato (Spodoptera eridania [1]): 50-100%; control of southern armyworm after six days on sorghum (Spodoptera eridania [2]): 30-100%
2 | Cc1cc(C=Nc2c(SC(F)(F)F)c(C#N)nn2-c2c(Cl)cc(C(F)(F)F)cc2Cl)ccc1O [compound 19] | 100% | 30-100% | 30-100% | –
3 | COc1cc(C=Nc2c(SC(F)(F)F)c(C#N)nn2-c2c(Cl)cc(C(F)(F)F)cc2Cl)cc(O)c1O [compound 40] | – | – | – | control of tobacco budworm (TBW) (Heliothis virescens [4]): 50-100%; control of mites (Tetranychus urticae): 30-70%
4 | CCOc1cc(C=Nc2c([S+]([O-])C(F)(F)F)c(C#N)nn2-c2c(Cl)cc(C(F)(F)F)cc2Cl)ccc1O (stereo not drawn) [compound 47] | – | – | – | control of mites (Tetranychus urticae): 30-70%
5 | COc1cc(C=Nc2c(SC(F)(F)F)c(C#N)nn2-c2c(Cl)cc(C(F)(F)F)cc2Cl)ccc1O [CMPD NO. 2, 1-(2,6-dichloro-4-trifluoromethylphenyl)-3-cyano-4-trifluoromethylsulfenyl-5-[(4-hydroxy-3-methoxyphenyl)methylideneimino]pyrazole] | – | – | – | control of southern armyworm after six days (Spodoptera eridania [5]): 100%; control of southern armyworm after six days on sorghum (Spodoptera eridania [2]): 30-100%
6 | N#Cc1nn(-c2c(Cl)cc(C(F)(F)F)cc2Cl)c(N=Cc2ccc(O)cc2O)c1SC(F)(F)F [compound 17] | 100% | 30-100% | 30-100% | –
7 | N#Cc1nn(-c2c(Cl)cc(C(F)(F)F)cc2Cl)c(N=Cc2ccncc2)c1SC(F)(F)F [compound 16, 1-(2,6-dichloro-4-trifluoromethylphenyl)-3-cyano-4-trifluoromethylsulfenyl-5-[(4-pyridyl)-methylideneimino]pyrazole] | 100% | 30-100% | 30-100% | –
8 | N#Cc1nn(-c2c(Cl)cc(C(F)(F)F)cc2Cl)c(N=Cc2cc[n+]([O-])cc2)c1SC(F)(F)F [compound 18, 1-(2,6-dichloro-4-trifluoromethylphenyl)-3-cyano-4-trifluoromethylsulfenyl-5-[(4-pyridyl-N-oxide)methylideneimino]pyrazole] | 100% | 30-100% | 30-100% | –
9 | N#Cc1nn(-c2c(Cl)cc(C(F)(F)F)cc2Cl)c(N=Cc2cccs2)c1SC(F)(F)F [compound 7] | – | – | – | ED3 value on SRKN larvae (Meloidogyne incognita): about 21 kg/ha
